Measured values reported in US20020187514A1 (priority 1999, published 2002).

What was measured:
Protein Kinase C, PDBu = format: binding
Opiate, Delta 1 = Opiate, Delta 1 (UniProt P33533); format: binding
Adrenergic, Alpha 2A = Adrenergic, Alpha 2A (Homo sapiens, UniProt P08913); assay: Adrenergic, Alpha 2A (Human); [3H]MK-912; format: binding; details: read-out: Pass 1 (10^−5 M) % Inhibition
[1] = reported in vivo pharmacology, cited from earlier work
Calcium Channel, Type N = format: binding
Histamine, H3 = assay: Histamine, H3; [3H]N-a-MeHistamine; format: binding; details: 10^−5 M
Serotonin, 5HT1D = Serotonin, 5HT1D (Homo sapiens, UniProt P28221); assay: biochemical; format: binding; details: read-out: Pass 1 (10^−5 M) % Inhibition
GABA A, Agonist Site = format: binding
Muscarinic, M4 = target: T1, Muscarinic, M4 (Homo sapiens, UniProt P08173); assay: biochemical; format: binding; details: read-out: Pass 1 (10^−5 M) % Inhibition
T1 construct: expressed in transfected cells

[2] = target: Protein Phosphatase, PP2A (Homo sapiens, UniProt P67775); assay: Protein Phosphatase, PP2A (Human); substrate DiFMUP; format: biochemical; details: read-out: Pass 1 (10^−5 M) % Inhibition
Adrenergic, Beta 1 = target: T2, Adrenergic, Beta 1 (Homo sapiens, UniProt P08588); assay: Adrenergic, Beta 1 (Human Recombinant); [125I]Iodocyanopindolol; format: binding; details: read-out: Pass 1 (10^−5 M) % Inhibition
T2 construct: expressed in transfected cells

[3] = target: T3, Protein Tyrosine Phosphatase, PTP-LAR-D1 (Homo sapiens, UniProt P10586); assay: Protein Tyrosine Phosphatase, PTP-LAR-D1 (Human); substrate pNPP; format: biochemical; details: read-out: Pass 1 (10^−5 M) % Inhibition
T3 construct: PTP-LAR-D1

Glutamate, Kainate Site = assay: Glutamate, Kainate Site; [3H]Kainic acid; format: binding; details: 10^−5 M
Opiate, Kappa 1 = Opiate, Kappa 1 (UniProt P41144); format: binding
Adenosine Transport (es) = Adenosine Transport (es) (Homo sapiens, UniProt Q99808); assay: biochemical; details: read-out: Pass 1 (10^−5 M) % Inhibition
Adrenergic, Beta 2 = Adrenergic, Beta 2 (Homo sapiens, UniProt P07550); assay: biochemical; format: binding; details: read-out: Pass 1 (10^−5 M) % Inhibition
Neurokinin, NK1 = format: binding; details: 10^−5 M
Muscarinic, M2 = Muscarinic, M2 (Homo sapiens, UniProt P08172); assay: biochemical; details: read-out: Pass 1 (10^−5 M) % Inhibition
Estrogen = assay: Estrogen; [125I]3,17B-Estradiol, 16a; format: binding; details: 10^−5 M
[4] = tested on: Glutamate, NMDA Agonist Site; assay: Glutamate, NMDA Agonist Site; [3H]CGP 39653; format: binding; details: 10^−5 M
Leukotrine D4, LTB4 = assay: Leukotrine D4, LTB4; [3H]LTD4; format: binding; details: 10^−5 M
Cannabinoid, CB1 = target: T4, Cannabinoid, CB1 (Homo sapiens, UniProt P21554); assay: Cannabinoid, CB1 (Human recombinant); [3H]-CP55940; format: binding; details: read-out: Pass 1 (10^−5 M) % Inhibition
T4 construct: expressed in transfected cells

Adrenergic, Alpha 2B = Adrenergic, Alpha 2B (UniProt P19328); format: binding
Serotonin, 5HT3 = Serotonin, 5HT3 (Mus musculus, UniProt P23979); assay: biochemical; format: binding
Esterase = Esterase (Human); substrate Acetylthiocholine; format: biochemical
Neurokinin, NK3 (NKB) = format: binding; details: 10^−5 M
Serotonin, 5HT1B = target: T5, Serotonin, 5HT1B (Rattus norvegicus, UniProt P28564); assay: biochemical; format: binding; details: read-out: Pass 1 (10^−5 M) % Inhibition
T5 construct: no other source notation after assay name denotes animal cell or animal tissue source; from tissue; host or cells: animal cell or animal tissue, not specified

Adenosine, A2A = target: T6, Adenosine, A2A (Homo sapiens, UniProt P29274); assay: biochemical; format: binding; details: read-out: Pass 1 (10^−5 M) % Inhibition
T6 construct: expressed in transfected cells

Dopamine, D1 = Dopamine, D1 (Homo sapiens, UniProt P21728); assay: biochemical; details: read-out: Pass 1 (10^−5 M) % Inhibition
Sigma 1 = target: T7, Sigma 1 (Cavia porcellus, UniProt Q60492); assay: Sigma 1; [3H]-(+)-Pentazocine; format: binding, guinea pig
T7 construct: Fresh guinea pig whole brain was obtained following decapitation; from tissue; host or cells: guinea pig whole brain membranes

[5] = tested on: Glutamic Acid Decarboxylase; assay: Glutamic Acid Decarboxylase; substrate [14C]Glutamic acid; format: biochemical; details: 10^−5 M
Dopamine, D2s = target: T8, Dopamine, D2s (Homo sapiens, UniProt P14416); assay: Dopamine, D2s (Human Recombinant); [3H]-Spiperone; format: binding; details: read-out: Pass 1 (10^−5 M) % Inhibition
T8 construct: expressed in transfected cells

[6] = tested on: Potassium Channel, Ca2+ Act., VI; assay: Potassium Channel, Ca2+ Act., VI; [125I]Apamin; format: binding; details: 10^−5 M
[7] = tested on: Protein Tyrosine Phosphatase, PTP-Cell; assay: Protein Tyrosine Phosphatase, PTP-Cell (Human); substrate pNPP; format: biochemical; details: 10^−5 M
Imidazoline, I1 = assay: Imidazoline, I1; [125I]-Clonidine; format: binding; details: 10^−5 M
Serotonin, 5HT6 = target: T9, Serotonin, 5HT6 (Homo sapiens, UniProt P50406); assay: biochemical; format: binding; details: read-out: Pass 1 (10^−5 M) % Inhibition
T9 construct: expressed in transfected cells

[8] = tested on: Thyrotropin Releasing Hormone, TRH; assay: Thyrotropin Releasing Hormone, TRH; [3H]-(3MeHis2)TRH; format: binding; details: 10^−5 M
[9] = tested on: Inositol Triphosphate, IP3; assay: Inositol Triphosphate, IP3; [3H]IP3; format: binding; details: 10^−5 M
Serotonin, 5HT1A = format: binding
[10] = target: T10, Monoamine Oxidase A, Peripheral (Rattus norvegicus, UniProt P21396); assay: biochemical; details: read-out: Pass 1 (10^−5 M) % Inhibition
T10 construct: no other source notation after assay name denotes animal cell or animal tissue source; from tissue

[11] = tested on: Potassium Channel, Ca2+ Act., VS; assay: Potassium Channel, Ca2+ Act., VS; [125I]Charybdotoxin; format: binding; details: 10^−5 M
[12] = read-out: Pass 1 (10^−5 M) % Inhibition

T7 sequence (Q60492 whole entry): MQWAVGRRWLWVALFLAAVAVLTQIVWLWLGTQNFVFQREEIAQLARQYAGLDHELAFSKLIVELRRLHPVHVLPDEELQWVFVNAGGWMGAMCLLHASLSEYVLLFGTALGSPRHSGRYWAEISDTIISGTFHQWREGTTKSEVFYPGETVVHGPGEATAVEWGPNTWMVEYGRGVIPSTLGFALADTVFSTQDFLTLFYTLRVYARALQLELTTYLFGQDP
Serotonin, 5HT3, sequence (P23979 24-489): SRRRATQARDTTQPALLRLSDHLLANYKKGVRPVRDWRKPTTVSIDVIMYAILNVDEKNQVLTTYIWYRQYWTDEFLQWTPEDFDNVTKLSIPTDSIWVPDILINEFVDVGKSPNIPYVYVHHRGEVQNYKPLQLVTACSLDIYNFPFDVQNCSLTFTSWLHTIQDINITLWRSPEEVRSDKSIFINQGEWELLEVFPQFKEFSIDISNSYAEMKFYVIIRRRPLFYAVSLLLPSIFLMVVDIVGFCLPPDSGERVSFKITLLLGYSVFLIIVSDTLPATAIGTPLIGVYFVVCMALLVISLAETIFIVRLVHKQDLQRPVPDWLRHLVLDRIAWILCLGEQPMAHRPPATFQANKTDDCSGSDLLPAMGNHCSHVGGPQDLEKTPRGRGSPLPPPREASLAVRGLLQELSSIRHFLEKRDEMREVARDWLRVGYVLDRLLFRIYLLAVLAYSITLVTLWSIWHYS
T6 sequence (P29274 whole entry): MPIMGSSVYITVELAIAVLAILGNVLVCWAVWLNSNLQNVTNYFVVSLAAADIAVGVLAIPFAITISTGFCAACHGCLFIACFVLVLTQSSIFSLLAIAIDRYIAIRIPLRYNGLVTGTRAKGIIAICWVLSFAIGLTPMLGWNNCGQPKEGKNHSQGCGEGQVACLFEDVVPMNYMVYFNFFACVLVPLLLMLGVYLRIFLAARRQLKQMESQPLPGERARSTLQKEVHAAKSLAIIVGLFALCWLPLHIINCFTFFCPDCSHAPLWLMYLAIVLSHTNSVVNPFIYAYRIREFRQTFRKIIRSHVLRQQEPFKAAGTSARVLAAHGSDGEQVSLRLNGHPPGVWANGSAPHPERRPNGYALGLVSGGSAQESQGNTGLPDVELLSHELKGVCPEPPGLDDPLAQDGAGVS
Opiate, Delta 1, sequence (P33533 whole entry): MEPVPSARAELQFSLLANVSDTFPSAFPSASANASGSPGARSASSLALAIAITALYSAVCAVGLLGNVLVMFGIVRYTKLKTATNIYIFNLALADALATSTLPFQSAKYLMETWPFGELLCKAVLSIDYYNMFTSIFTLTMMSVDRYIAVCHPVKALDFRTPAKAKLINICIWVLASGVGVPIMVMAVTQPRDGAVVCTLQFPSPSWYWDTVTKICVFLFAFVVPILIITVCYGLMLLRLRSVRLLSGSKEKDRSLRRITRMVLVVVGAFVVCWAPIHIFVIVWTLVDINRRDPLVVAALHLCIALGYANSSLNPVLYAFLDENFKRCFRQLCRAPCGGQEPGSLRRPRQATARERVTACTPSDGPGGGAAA
Protein Phosphatase, PP2A, sequence (P67775 whole entry): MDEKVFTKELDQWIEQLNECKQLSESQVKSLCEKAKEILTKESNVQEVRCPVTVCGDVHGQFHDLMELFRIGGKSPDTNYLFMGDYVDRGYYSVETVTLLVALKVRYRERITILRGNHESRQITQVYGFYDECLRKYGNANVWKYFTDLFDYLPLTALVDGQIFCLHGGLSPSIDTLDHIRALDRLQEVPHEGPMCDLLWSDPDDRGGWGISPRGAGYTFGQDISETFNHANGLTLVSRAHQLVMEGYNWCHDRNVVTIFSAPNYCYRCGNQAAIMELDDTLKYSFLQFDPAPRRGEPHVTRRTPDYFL
T1 sequence (P08173 whole entry): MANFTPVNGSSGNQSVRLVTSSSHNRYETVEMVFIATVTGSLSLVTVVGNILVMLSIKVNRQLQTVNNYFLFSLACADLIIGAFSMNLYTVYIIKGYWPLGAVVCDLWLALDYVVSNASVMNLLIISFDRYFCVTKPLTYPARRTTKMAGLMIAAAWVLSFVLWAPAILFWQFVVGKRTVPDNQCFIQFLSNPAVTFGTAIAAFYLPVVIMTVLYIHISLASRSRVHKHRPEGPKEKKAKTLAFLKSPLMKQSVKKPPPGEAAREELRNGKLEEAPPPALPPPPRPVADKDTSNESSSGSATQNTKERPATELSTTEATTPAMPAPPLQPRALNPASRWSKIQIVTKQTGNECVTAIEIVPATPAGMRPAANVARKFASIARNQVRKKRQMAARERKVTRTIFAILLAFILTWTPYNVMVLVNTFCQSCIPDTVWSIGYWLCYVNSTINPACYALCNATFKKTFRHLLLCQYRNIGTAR
Dopamine, D1, sequence (P21728 whole entry): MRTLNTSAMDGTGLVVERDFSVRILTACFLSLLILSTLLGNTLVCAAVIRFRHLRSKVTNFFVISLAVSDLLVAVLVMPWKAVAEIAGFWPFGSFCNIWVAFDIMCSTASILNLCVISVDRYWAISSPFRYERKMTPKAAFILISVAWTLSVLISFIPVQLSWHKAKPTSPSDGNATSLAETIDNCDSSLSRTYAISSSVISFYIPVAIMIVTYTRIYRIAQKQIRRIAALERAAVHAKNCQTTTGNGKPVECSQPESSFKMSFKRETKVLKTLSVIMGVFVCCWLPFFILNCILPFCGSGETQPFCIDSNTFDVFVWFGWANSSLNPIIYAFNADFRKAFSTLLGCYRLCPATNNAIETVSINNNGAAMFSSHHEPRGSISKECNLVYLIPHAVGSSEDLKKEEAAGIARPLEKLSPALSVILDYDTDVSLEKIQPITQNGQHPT
Adrenergic, Beta 2, sequence (P07550 whole entry): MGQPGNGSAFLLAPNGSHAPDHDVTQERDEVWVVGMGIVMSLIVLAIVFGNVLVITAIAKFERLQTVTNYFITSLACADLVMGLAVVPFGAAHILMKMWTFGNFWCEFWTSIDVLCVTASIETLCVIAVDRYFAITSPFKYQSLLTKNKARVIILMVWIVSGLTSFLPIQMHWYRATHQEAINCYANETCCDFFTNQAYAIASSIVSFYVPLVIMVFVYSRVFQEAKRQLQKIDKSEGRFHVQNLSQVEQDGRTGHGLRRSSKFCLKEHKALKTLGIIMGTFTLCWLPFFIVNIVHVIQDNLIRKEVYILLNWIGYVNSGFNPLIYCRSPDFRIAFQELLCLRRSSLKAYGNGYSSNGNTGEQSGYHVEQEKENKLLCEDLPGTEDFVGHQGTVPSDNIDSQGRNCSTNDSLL
Adrenergic, Alpha 2B, sequence (P19328 whole entry): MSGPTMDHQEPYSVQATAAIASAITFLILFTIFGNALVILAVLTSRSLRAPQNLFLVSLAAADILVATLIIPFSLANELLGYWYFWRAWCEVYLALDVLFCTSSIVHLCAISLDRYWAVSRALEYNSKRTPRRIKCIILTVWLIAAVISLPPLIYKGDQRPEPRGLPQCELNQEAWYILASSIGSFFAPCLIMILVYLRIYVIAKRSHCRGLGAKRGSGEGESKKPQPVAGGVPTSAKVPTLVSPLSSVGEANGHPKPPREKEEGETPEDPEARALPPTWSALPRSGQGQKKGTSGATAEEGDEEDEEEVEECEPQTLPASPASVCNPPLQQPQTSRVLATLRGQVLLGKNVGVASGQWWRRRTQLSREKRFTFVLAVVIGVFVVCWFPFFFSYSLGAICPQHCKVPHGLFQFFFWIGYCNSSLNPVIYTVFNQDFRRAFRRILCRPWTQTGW
T10 sequence (P21396 whole entry, looked up): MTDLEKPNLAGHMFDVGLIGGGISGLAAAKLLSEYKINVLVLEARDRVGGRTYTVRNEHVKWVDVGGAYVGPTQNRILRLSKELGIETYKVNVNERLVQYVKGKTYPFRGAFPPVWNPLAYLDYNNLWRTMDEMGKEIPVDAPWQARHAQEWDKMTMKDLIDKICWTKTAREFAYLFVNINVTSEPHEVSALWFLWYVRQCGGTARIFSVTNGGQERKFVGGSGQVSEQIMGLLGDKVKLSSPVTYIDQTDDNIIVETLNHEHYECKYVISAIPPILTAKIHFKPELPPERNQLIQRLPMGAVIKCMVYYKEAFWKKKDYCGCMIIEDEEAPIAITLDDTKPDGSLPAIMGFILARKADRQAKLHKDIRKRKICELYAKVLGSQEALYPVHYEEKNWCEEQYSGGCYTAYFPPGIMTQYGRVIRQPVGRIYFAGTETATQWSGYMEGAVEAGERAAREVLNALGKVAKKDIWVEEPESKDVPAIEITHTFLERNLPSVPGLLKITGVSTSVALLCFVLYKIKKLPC
Adenosine Transport (es), sequence (Q99808 whole entry): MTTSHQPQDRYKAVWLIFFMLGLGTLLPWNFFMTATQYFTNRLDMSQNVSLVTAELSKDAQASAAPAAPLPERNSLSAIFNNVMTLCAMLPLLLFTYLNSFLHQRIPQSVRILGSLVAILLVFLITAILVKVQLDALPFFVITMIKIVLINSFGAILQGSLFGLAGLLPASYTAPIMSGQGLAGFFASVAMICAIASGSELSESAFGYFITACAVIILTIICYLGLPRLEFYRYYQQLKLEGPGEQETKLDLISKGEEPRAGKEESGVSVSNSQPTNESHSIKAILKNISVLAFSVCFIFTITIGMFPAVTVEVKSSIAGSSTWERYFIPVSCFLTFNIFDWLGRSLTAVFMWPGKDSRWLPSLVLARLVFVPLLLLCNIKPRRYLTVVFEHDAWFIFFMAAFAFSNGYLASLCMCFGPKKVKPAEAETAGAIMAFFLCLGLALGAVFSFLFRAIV
Serotonin, 5HT1D, sequence (P28221 whole entry): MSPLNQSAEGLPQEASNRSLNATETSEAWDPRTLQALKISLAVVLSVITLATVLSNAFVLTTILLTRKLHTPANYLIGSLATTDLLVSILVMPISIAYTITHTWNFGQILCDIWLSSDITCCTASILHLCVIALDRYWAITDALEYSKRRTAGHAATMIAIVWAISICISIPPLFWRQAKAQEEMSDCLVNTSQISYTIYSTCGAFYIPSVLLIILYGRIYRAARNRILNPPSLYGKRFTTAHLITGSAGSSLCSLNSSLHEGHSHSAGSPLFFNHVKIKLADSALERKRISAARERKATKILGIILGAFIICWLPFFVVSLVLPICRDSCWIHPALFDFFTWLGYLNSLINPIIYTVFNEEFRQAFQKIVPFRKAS

COC(=O)[C@H]1[C@@H](OC(=O)c2ccccc2)C[C@@H]2CC[C@H]1N2C [cocaine]
Pass 1 (10^−5 M) % Inhibition (Protein Kinase C, PDBu): −4.44%
Pass 1 (10^−5 M) % Inhibition (Opiate, Delta 1): 2.51%
inhibition at 10 µM (Adrenergic, Alpha 2A): 15.3%
effects of high dosages ([1]; high dosages): euphoria, involuntary motor activity, stereotypic behavior, paranoia, and irritability and increased risk of violence
effect on heart rate and blood pressure [1]: dosage dependent increase in heart rate and blood pressure
Pass 1 (10^−5 M) % Inhibition (Calcium Channel, Type N): 11.51%
Pass 1 (10^−5 M) % Inhibition (Histamine, H3): −4.60%
inhibition at 10 µM (Serotonin, 5HT1D): 3.12%
Pass 1 (10^−5 M) % Inhibition (GABA A, Agonist Site): 5.81%
inhibition at 10 µM (Muscarinic, M4): 0.42%
inhibition at 10 µM [2]: 15.3%
inhibition at 10 µM (Adrenergic, Beta 1): 11.7%
inhibition at 10 µM [3]: 24.4%
Pass 1 (10^−5 M) % Inhibition (Glutamate, Kainate Site): 1.95%
Pass 1 (10^−5 M) % Inhibition (Opiate, Kappa 1): 10.19%
inhibition at 10 µM (Adenosine Transport (es)): 47.5%
inhibition at 10 µM (Adrenergic, Beta 2): -15.6%
Pass 1 (10^−5 M) % Inhibition (Neurokinin, NK1): −1.72%
inhibition at 10 µM (Muscarinic, M2): 3.57%
Pass 1 (10^−5 M) % Inhibition (Estrogen): 12.80%
Pass 1 (10^−5 M) % Inhibition [4]: 38.66%
Pass 1 (10^−5 M) % Inhibition (Leukotrine D4, LTB4): −17.11%
inhibition at 10 µM (Cannabinoid, CB1): 33.4%
Pass 1 (10^−5 M) % Inhibition (Adrenergic, Alpha 2B): −3.82%
Ki (Serotonin, 5HT3; Pass 3 screening, nine concentrations, read-out: Ki Determination): 3.09 µM
inhibition at 10 µM (Serotonin, 5HT3; [12]): 60.3%
Pass 1 (10^−5 M) % Inhibition (Esterase): 31.58%
Pass 1 (10^−5 M) % Inhibition (Neurokinin, NK3 (NKB)): −15.24%
inhibition at 10 µM (Serotonin, 5HT1B): 3.31%
inhibition at 10 µM (Adenosine, A2A): 25.9%
inhibition at 10 µM (Dopamine, D1): 17.5%
Ki (Sigma 1): 11.6 µM
inhibition at 10 µM (Sigma 1; [12]): 64.7%
Pass 1 (10^−5 M) % Inhibition [5]: −1.39%
inhibition at 10 µM (Dopamine, D2s): 30.6%
Pass 1 (10^−5 M) % Inhibition [6]: 11.04%
Pass 1 (10^−5 M) % Inhibition [7]: −17.63%
Pass 1 (10^−5 M) % Inhibition (Imidazoline, I1): −0.78%
inhibition at 10 µM (Serotonin, 5HT6): 1.13%
Pass 1 (10^−5 M) % Inhibition [8]: −11.95%
Pass 1 (10^−5 M) % Inhibition [9]: −19.14%
Pass 1 (10^−5 M) % Inhibition (Serotonin, 5HT1A): 0.52%
inhibition at 10 µM [10]: 32.8%
Pass 1 (10^−5 M) % Inhibition [11]: 16.63%
